# Reference: patent US20070207230A1, “EXTRACT OF NELUMBINIS SEMEN FOR THE TREATMENT OF DEPRESSION, MEDICINAL COMPOSITE AND HEALTH FOODS INCLUDING THE EXTRACT OF NELUMBINIS SEMEN” (PURIMED CO., LTD., priority 2004, published 2007)
# Experiments:
# [1] = test system: male rats exposed to CMS; experiment: Sexual (mating) behavior after CMS; assay type: in vivo, rat; settings: drug last four weeks
# Method: A decrease in sucrose consumption (the core symptom of depression) in rats was confirmed during the 8-week CMS period, and antidepressants were administered for the last four weeks. Then, mating behavior of rats was observed. This test was carried out a dark and quiet room using a 16×16-inch transparent acrylic box. Mature female rats were ovariectomized, and, to induce sexual receptivity, were administered with 20 μg of estradiol benzoate 48 hrs before the test and 1 mg of progesterone 5 hrs before the test. Male rats were singly housed in the same box for 30 min to adapt to a new environment. […] When female rats have sexual receptivity, that is, are estrous, they allow male rats to mount and show lordosis. Sexual behaviors of male rats were divided into mounting, intromission and ejaculation, and frequency of each behavior was recorded. The number of ejaculation (higher frequency generally means higher sexual activity) was recorded for 30 min. The time taken after ejaculation before resumption of sexual activity was called “post-ejaculation interval (PEI)”. A decrease in PEI generally means that male rats have increased sexual activity.
# [2] = test system: male Wistar white rats exposed to CMS; experiment: Open field activity after CMS; assay type: in vivo, rat; settings: 8-week CMS, drug for the last four weeks; average
# From the text: The open field consisted of a wooden box of 75×75×30 cm, the floor of which was divided by width and length lines into 15 cm squares. The open field was connected to a small box of 15×15×15 cm, which was used as a start box where experimental animals waited to enter the open field. A vertical sliding door was installed between the start box and the open field. White rats were placed in the start box, and, after 30 sec, the sliding door was open. The time to leave the start box toward the open field, which was expressed as start latency, was recorded. The start latency time means the time ranging from when the door was opened to when the rat tails completely exited the start box. […] The following behaviors were recorded for a total of 10 min: locomotion, rearing, grooming and defecation. Grooming behavior was recorded as the total time spent grooming in 10 min, and the remaining behaviors were all recorded as frequencies. Locomotor activity was recorded by counting the number of squares each white rat crossed on the floor divided into 25 15×15-cm squares using a computer tracking system. […] Grooming was recorded as the number of times each rat stroked its head or combed its fur with its forepaws during 10 min. After the 10-min observation, the white rats were removed from the open field, and defecation frequency was recorded by counting fecal boluses on the floor of the open field.
# [3] = test system: male Wistar white rats exposed to CMS; experiment: Sucrose intake in the CMS model of depression; assay type: in vivo, rat; settings: 8-week CMS, drug for the last four weeks
# From the text: Postnatal 6-week-old male Wistar white rats weighing 180-200 g were divided into test groups and a control group. The rats were first trained to experience and drink a 1% sucrose solution for 48 hrs to be adapted to sweetness. After three days, the test groups were exposed to CMS (chronic mild stress) for a total of eight weeks. The CMS procedure applied to the test groups was based on the procedure originally designed by Willner et al. (1987). The rats were sequentially exposed to a variety of mild stressors, and a series of stressors was suitably divided over one week and applied to rats according to a predetermined time schedule. This procedure was repeated for eight weeks.
# The stress procedure is given in Table 1, below, which describes a weekly CMS regime (20-h food and water deprivation, prey limitation after the food and water deprivation (45 g powdered prey sprinkled), exposure to empty water bottles after the food and water deprivation, all day illumination, 30° cage tilt; soiled cage (400 ml of water spilled on bedding), presentation of intermittent 85-dB white noise, presentation of flashes of light with a stroboscope, and tripled housing). The control rats were weekly exposed only to food and water deprivation for 20 hrs before sucrose intake was measured, and were normally bred in single cages for the rest of the time with sufficient water and food supply. […]
# [4] = test system: 5-HT1A receptor; experiment: [3H]-8-OH-DPAT receptor binding autoradiography on brain sections of CMS rats; assay type: in vivo, rat
# Method: Secondarily, antidepressive effects were evaluated by an increase or decrease in receptor binding of a serotonin 1A receptor agonist, [^3H]-8-OH-DPAT, in the rat prefrontal cortex, hippocampus and hypothalamus, which play important roles in depression, as follows. […] Whole brains were excised from the rats and rapidly frozen in dry ice. The rapidly frozen brains were stored at −70° C. until sectioned. The brains were cryo-sectioned into a size of 20 ? at −20° C. using a cryostat microtome (Leika), and each section was attached onto a gelatin-coated slide (Superfrost/Plus, Fisher Scientific). The slides were stored at −70° C. until use for observing changes in 5-HT1A receptor levels or activity. The changes in 5-HT1A receptor were examined using a radioisotope, [^3H]-8-OH-DPAT. The slides were taken out from a −70° C. freezer where the slides had been stored, and were pre-incubated in Tris-HCl buffer (170 mM Tris, 4 mM CaCl2, pH 7.6) for 30 min at room temperature. Then, the slides were incubated in Tris-HCl buffer containing 2 nM [^3H]-8-OH-DPAT (Amersham) for one hour. This incubation is total binding for observing the changes in the whole 5-HT1A receptor, and non-specific binding was observed using Tris-HCl buffer containing 1 μM 5-HT (Sigma). Then, the slides were washed with Tris-HCl buffer precooled at 4° C. six times and dried with chilled air. The slides were completely dried in a desiccator for 24 hours. The completely dried slides are exposed to Hyperfilm along with a standard scale bar for five weeks. The film exposed for five weeks was developed using a developer and a fixer. For quantitative analysis of density, the film was scanned using an image analysis program, ImageQuant (Molecular dynamics).
# The changes in 5-HT1A receptor levels or activity were examined using a radioisotope, [^3H]-8-OH-DPAT. Reduced levels or inactivation of 5-HT1A receptor occur in the prefrontal cortex, hippocampus and hypothalamus of depressed patients. […] This normalization of 5-HT1A receptor by antidepressant administration is effective in treating depression and depression-associated neurodegeneration. Based on this fact, an increase in 5-HT1A receptor levels can be assessed by a receptor binding assay using a 5-HT1A receptor […]. When an increase in 5-HT1A receptor levels is observed upon Nelumbinis Semen administration in comparison with a control group exposed to CMS, this is considered an in vivo indication of an antidepressive effect at the molecular level. After drugs were administered for the last four weeks of the 8-week CMS period, an increase in 5-HT1A receptor levels, as an in vivo indication of antidepressive effect, was found in animals administered with the Nelumbinis Semen extract.
# [5] = test system: rat hippocampus proteins; experiment: 2-DE analysis of hippocampus proteins of CMS rats; settings: drug last four weeks, compared to control group
# From the text: Thirdly, an increase in marker proteins of antidepression, which play important roles in depression, was examined in the rat hippocampus by 2-DE, as follows. Rats were exposed to CMS for eight weeks and administered with drugs for the last four weeks of a test period. The hippocampus was excised from the rats, suspended with a sonicator and centrifuged, and the supernatants were recovered. Each sample was mixed with an IEF sample buffer and loaded onto an IEF gel. Proteins were separated according to isoelectric point by isoelectric focusing (IEF) in the first dimension and according to molecular weight by SDS-PAGE at 100-200 V for about 1-2 hours in the second dimension. The gel was stained by a Gel-Code Blue staining method and evaluated for elevated or newly emerged proteins by the antidepressive substances. The elevated or newly emerged proteins by the antidepressive substances were subjected to mass spectrometry.
# Protein samples from the rat hippocampus were loaded onto an IEF gel. Proteins were separated according to isoelectric point by isoelectric focusing (IEF) in the first dimension and according to molecular weight by SDS-PAGE in the second dimension.
# [6] = test system: Sprague-Dawley male rats; experiment: Forced swim test, immobility time; assay type: in vivo, rat; settings: 5 min forced swim the day after
# Method: During forced swimming, the immobility time, when a rat ceases struggling and remains floating motionless in the water, was measured. The forced swimming itself induces depression in rats. Rats in water baths struggle first, and then stop struggling and remain floating motionless in the water. At the immobile state, rats become desperate and almost come to give up their lives. This time is considered to be the situation when depression is induced.
# The antidepressive effects of drugs are assessed using this principle. Before being administered with drugs, experimental animals (rats) are dropped into water baths and forced to swim for 15 minutes to be trained to adapt to a suddenly changed environment without fear.
# A comparative group was orally administered with a Hypericum perforatum extract. Another comparative group was intraperitoneally administered with fluoxetine. Each drug was administered for one day or six days.
# Before the drug administration, the white rats were dropped into a cylindrical water bath (20 cm in diameter; 40 cm water depth) and forced to swim for 15 min. The day after the drug administration for one day or six days, the rats were forced to swim for 5 min, and during this forced swimming, immobility time was measured.
# [7] = Body weight in the CMS model of depression; assay type: in vivo, rat; settings: after 8-week CMS, drug for the last four weeks; versus CMS control group
# From the text: The rats were first trained to experience and drink a 1% sucrose solution for 48 hrs to be adapted to sweetness. After three days, the test groups were exposed to CMS (chronic mild stress) for a total of eight weeks. The CMS procedure applied to the test groups was based on the procedure originally designed by Willner et al. (1987). The rats were sequentially exposed to a variety of mild stressors, and a series of stressors was suitably divided over one week and applied to rats according to a predetermined time schedule. This procedure was repeated for eight weeks. […] The control rats were weekly exposed only to food and water deprivation for 20 hrs before sucrose intake was measured, and were normally bred in single cages for the rest of the time with sufficient water and food supply. […] Intake of a 1% sucrose solution was measured once every week in each of the four groups. […] Sucrose preference was expressed as a ratio of sucrose intake to total water and sucrose intake. […] In each group, sucrose intake was monitored from the beginning of CMS and for the CMS period of eight weeks. Body weight was measured before the 20-h water and food deprivation performed to measure sucrose intake every week.
compound,measurement,setting,value
CNCCC(Oc1ccc(C(F)(F)F)cc1)c1ccccc1 (stereo not drawn) [fluoxetine],post-ejaculation interval (PEI),[1]; compared to control animals exposed to CMS,no significant difference
same,sexual behavior (ejaculation frequency in 30 min),[1]; compared to normal animals,remarkably reduced
same,visit counts in open field,[2],60 places in 10 min
same,sucrose consumption,[3],restored to levels similar to the normal group
same,5-HT1A receptor levels,[4]; CA2 region of the rat hippocampus,decrease
same,decrease in 5-HT1A receptor levels,[4]; CA3 region of the rat hippocampus,2%
same,decrease in 5-HT1A receptor levels,"[4]; layer I-II of the rat cerebral frontal cortex, compared to the NS group, P<0.05",46%
same,5-HT1A receptor levels,"[4]; rat hippocampus and hypothalamus, compared to CMS control group",increase
same,protein spots in 2-DE of hippocampus,[5],decrease in spots 1 and 4
same,decrease in immobility time in comparison with a control group,[6]; one-day drug administration,9.3%
same,decrease in immobility time in comparison with a control group,[6]; six-day drug administration,22.1%
same,body weight,[7],greater weight loss than the control group
